# Data from patent US10370356B2, “Pyridinone dicarboxamide for use as bromodomain inhibitors” (GlaxoSmithKline Intellectual Property (No. 2) Limited, priority 2015, dated 2019).
# Structures can show the parent of a compound that is named as a salt.
# Molecular target: T1, BRD4 BD2 (Homo sapiens, UniProt O60885, Y97A)
# T1 construct: BRD4 (1-477) (Y97A) and (Y390A); made in house; host or cells: E. coli (pET15b vector)
# Experiment: BRD4 BD2 mutant TR-FRET competition assay
# Assay type: binding
# Details: average of N recorded values, read-out: BRD4 BD2 IC50 (average value) (converted)
row,IC50,SMILES
1,15.8 nM,"CNC(=O)c1cc(C(=O)NCCC2CCNCC2)cn(Cc2cccc3[nH]ccc23)c1=O [Example 56, 1-((1H-Indol-4-yl)methyl)-N^3-methyl-2-oxo-N5-(2-(piperidin-4-yl)ethyl)-1,2-dihydropyridine-3,5-dicarboxamide]"

# Same assay, conditions: read-out: pIC50 in the BRD4 BD2 assay (converted)
row,IC50,SMILES
1,100 to 1000 nM,"CNC(=O)c1cc(C(=O)NCCC2CCCCN2)cn(Cc2ccccc2)c1=O (stereo not shown) [Example 40, 1-Benzyl-N^3-methyl-2-oxo-N^5-(2-(piperidin-2-yl)ethyl)-1,2-dihydropyridine-3,5-dicarboxamide hydrochloride]"
2,1000 to 100000 nM,"CNC(=O)c1cc(C(=O)NC2CCCS(=O)(=O)C2)cn(Cc2ccccc2)c1=O (stereo not shown) [Example 42, 1-Benzyl-N^5-(1,1-dioxidotetrahydro-2H-thiopyran-3-yl)-N^3-methyl-2-oxo-1,2-dihdyropyridine-3,5-dicarboxamide]"
3,100 to 1000 nM,"CNC(=O)c1cc(C(=O)NC2CCS(=O)(=O)C2)cn(Cc2ccccc2)c1=O (stereo not shown) [Example 43, 1-Benzyl-N^5-(1,1-dioxidotetrahydrothiophen-3-yl)-N^3-methyl-2-oxo-1,2-dihydroypridine-3,5-dicarboxamide]"
4,100 to 1000 nM,"CNC(=O)c1cc(C(=O)NC2CCS(=O)(=O)CC2)cn(Cc2ccccc2)c1=O [Example 44, 1-Benzyl-N^5-(1,1-dioxidotetrahydro-2H-thiopyran-4-yl)-N^3-methyl-2-oxo-1,2-dihydropyridine-3,5-dicarboxamide]"
5,100 to 1000 nM,"CNC(=O)c1cc(C(=O)NCCCN2CCCCC2)cn(Cc2ccccc2)c1=O [Example 45, 1-Benzyl-N^3-methyl-2-oxo-N^5-(3-(piperidin-1-yl)propyl)-1,2-dihydropyridine-3,5-dicarboxamide hydrochloride]"
6,100 to 1000 nM,"CNC(=O)c1cc(C(=O)NC[C@H]2CCCOC2)cn(Cc2ccccc2)c1=O [Example 46, (R)-1-Benzyl-N^3-methyl-2-oxo-N^5-((tetrahydro-2H-pyran-3-yl)methyl)-1,2-dihydropyridine-3,5-dicarboxamide]"
7,100 to 1000 nM,"CNC(=O)c1cc(C(=O)NC[C@@H]2CCCOC2)cn(Cc2ccccc2)c1=O [Example 47, (S)-1-Benzyl-N^3-methyl-2-oxo-N^5-((tetrahydro-2H-pyran-3-yl)methyl)-1,2-dihydropyridine-3,5-dicarboxamide]"
8,1000 to 100000 nM,"CNC(=O)c1cc(C(=O)NCC2CCS(=O)(=O)C2)cn(Cc2ccccc2)c1=O (stereo not shown) [Example 48, 1-Benzyl-N^5-((1,1-dioxidotetrahydrothiophen-3-yl)methyl)-N^3-methyl-2-oxo-1,2-dihydropyridine-3,5-dicarboxamide]"
9,100 to 1000 nM,"CNC(=O)c1cc(C(=O)NCC2CCOCC2)cn(Cc2ccccc2)c1=O [Example 49, 1-Benzyl-N^3-methyl-2-oxo-N^5-((tetrahydro-2H-pyran-4-yl)methyl)-1,2-dihydroopyridine-3,5-dicarboxamide]"
10,100 to 1000 nM,"CNC(=O)c1cc(C(=O)NC2CCCOC2)cn(Cc2ccccc2)c1=O (stereo not shown) [Example 50, 1-Benzyl-N^3-methyl-2-oxo-N^5-(tetrahydro-2H-pyran-3-yl)-1,2-dihdyropyridine-3,5-dicarboxamide]"
11,100 to 1000 nM,"CNC(=O)c1cc(C(=O)NCCCN2CCN(C)CC2)cn(Cc2ccccc2)c1=O [Example 51, 1-Benzyl-N^3-methyl-N^5-(3-(4-methylpiperazin-1-yl)propyl)-2-oxo-1,2-dihydropyridine-3,5-dicarboxamide]"
12,100 to 1000 nM,"CNC(=O)c1cc(C(=O)NCCCN2CCS(=O)(=O)CC2)cn(Cc2ccccc2)c1=O [Example 52, 1-Benzyl-N^5-(3-(1,1-dioxidothiomorpholino)propyl)-N^3-methyl-2-oxo-1,2-dihydropyridine-3,5-dicarboxamide]"
13,1000 to 100000 nM,"CNC(=O)c1cc(C(=O)NCC2CCS(=O)(=O)CC2)cn(Cc2ccccc2)c1=O [Example 53, 1-Benzyl-N^5-((1,1-dioxidotetrahydro-2H-thiopyran-4-yl)methyl)-N^3-methyl-2-oxo-1,2-dihydropyridine-3,5-dicarboxamide]"
14,≤ 100 nM,"CNC(=O)c1cc(C(=O)NCCC2CCNCC2)cn(Cc2cccc3[nH]ccc23)c1=O [Example 56, 1-((1H-Indol-4-yl)methyl)-N^3-methyl-2-oxo-N5-(2-(piperidin-4-yl)ethyl)-1,2-dihydropyridine-3,5-dicarboxamide]"
15,≤ 100 nM,"CNC(=O)c1cc(C(=O)NCCCC2(O)CCNCC2)cn(Cc2ccccc2)c1=O [Example 57, 1-Benzyl-N^5-(3-(4-hydroxypiperidin-4-yl)propyl)-N^3-methyl-2-oxo-1,2-dihydropyridine-3,5-dicarboxamide]"
16,100 to 1000 nM,"CNC(=O)c1cc(C(=O)NCCCC2CCCN(C(=O)OC(C)(C)C)C2)cn(Cc2ccccc2)c1=O (stereo not shown) [Example 59, tert-Butyl 3-(3-(1-benzyl-5-(methylcarbamoyl)-6-oxo-1,6-dihydropyridine-3-carboxamido)propyl)piperidine-1-carboxylate]"
17,≤ 100 nM,"CNC(=O)c1cc(C(=O)NCCCC2(F)CCNCC2)cn(Cc2ccccc2)c1=O [Example 61, 1-Benzyl-N^5-(3-(4-fluoropiperidin-4-yl)propyl)-N^3-methyl-2-oxo-1,2-dihydropyridine-3,5-dicarboxamide hydrochloride]"
18,100 to 1000 nM,"CNC(=O)c1cc(C(=O)NCCC2CN(C)CCO2)cn(Cc2ccccc2)c1=O (stereo not shown) [Example 64, 1-benzyl-N^3-methyl-N^5-(2-(4-methylmorpholin-2-yl)ethyl)-2-oxo-1,2-dihydropyridine-3,5-dicarboxamide]"
19,100 to 1000 nM,"CNC(=O)c1cc(C(=O)NCCC2CN(C(C)=O)CCO2)cn(Cc2ccccc2)c1=O (stereo not shown) [Example 65, N^5-(2-(4-acetylmorpholin-2-yl)ethyl)-1-benzyl-N^3-methyl-2-oxo-1,2-dihydropyridine-3,5-dicarboxamide]"
20,100 to 1000 nM,"CNC(=O)c1cc(C(=O)NCCC2CNCCO2)cn(Cc2ccccc2)c1=O (stereo not shown) [Example 66, 1-benzyl-N^3-methyl-N^5-(2-(morpholin-2-yl)ethyl)-2-oxo-1,2-dihydropyridine-3,5-dicarboxamide hydrochloride]"
21,100 to 1000 nM,"CNC(=O)c1cc(C(=O)NCCOC2CCNC2)cn(Cc2ccccc2)c1=O (stereo not shown) [Example 67, 1-benzyl-N3-methyl-2-oxo-N5-(2-(pyrrolidin-3-yloxy)ethyl)-1,2-dihydropyridine-3,5-dicarboxamide, hydrochloride]"
22,100 to 1000 nM,"CNC(=O)c1cc(C(=O)NCCOC2CCCNC2)cn(Cc2ccccc2)c1=O (stereo not shown) [Example 68, 1-benzyl-N^3-methyl-2-oxo-N^5-(2-(piperidin-3-yloxy)ethyl)-1,2-dihydropyridine-3,5-dicarboxamide]"
23,≤ 100 nM,"CNC(=O)c1cc(C(=O)N[C@H]2[C@@H]3COC[C@@H]32)cn(Cc2ccccc2)c1=O [Example 69, 1-Benzyl-N^5-((1R,5S,6r)-3-oxabicyclo[3.1.0]hexan-6-yl)-N^3-methyl-2-oxo-1,2-dihydropyridine-3,5-dicarboxamide]"
24,≤ 100 nM,"CNC(=O)c1cc(C(=O)NCCCC2CCCN(C)C2)cn(Cc2ccccc2)c1=O (stereo not shown) [Example 70, 1-Benzyl-N^3-methyl-N^5-(3-(1-methylpiperidin-3-yl)propyl)-2-oxo-1,2-dihydropyridine-3,5-dicarboxamide]"
25,≤ 100 nM,CNC(=O)c1cc(C(=O)NCCCC2CCCN(CCF)C2)cn(Cc2ccccc2)c1=O (stereo not shown) [Example 71]
26,≤ 100 nM,"CNC(=O)c1cc(C(=O)N[C@H]2[C@@H]3COC[C@@H]32)cn(Cc2cccc(OC)c2)c1=O [Example 72, N5-((1R,5S,6r)-3-Oxabicyclo[3.1.0]hexan-6-yl)-1-(3-methoxybenzyl)-N^3-methyl-2-oxo-1,2-dihydropyridine-3,5-dicarboxamide]"
27,≤ 100 nM,CNC(=O)c1cc(C(=O)NCCCC2CCN(C(C)=O)CC2)cn(Cc2cccc3[nH]ccc23)c1=O [Example 74]
